Here are results for ten compounds from PubChem BioAssay (NCI).

What all share (assay): NCI tumour cell line growth inhibition, 48 h
For assay [1], the system named is UACC-62 melanoma.
For assay [2], the system named is MALME-3M melanoma.
Assay [3] deals with HCT-15 colon.
Assay [4] concerns EKVX NSCLC.
The test system of assay [5] is OVCAR-3 ovarian.
For assay [6], the system named is SK-MEL-2 melanoma.
Assay [7] relates to NCI-H460 lung.
Assay [8] deals with HOP-92 NSCLC.
The subject of assay [9] is M14 melanoma.
Assay [10] has as its system ACHN renal.
Assay [11] concerns MOLT-4 leukemia.
Assay [12] concerns TK-10 renal.
In assay [13] the test system is SK-MEL-5 melanoma.
Assay [14] deals with NCI-H522 lung.
Assay [15] deals with MCF7 breast.
Assay [16] deals with MDA-MB-435.
Assay [17] relates to PC-3 prostate.

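Step 1: Grow cells in 96-well plates. Step 2: Expose to compound for 48 hours at 5 concentrations. Step 3: Interpolate endpoints linearly; if unreached, use highest concentration. TGI denotes the concentration required for complete inhibition of growth.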

For the compound `O=C1Nc2ccccc2C12CCNC2Cc1ccccc1` (configuration not stated), the TGI in [1], in assay [2], in assay [3], in assay [4], in assay [5] and in assay [6] was above 100 µM each time. The TGI in assay [7], in [8], in assay [9], in [10], in [11] and in assay [12] was above 100 µM each time. Besides, in assay [13], the TGI was above 100 µM.
As for `N#CC1=C(N)n2c(s/c(=C\c3ccc(Cl)cc3)c2=O)=C(c2nc3ccccc3[nH]2)C1c1ccc(Cl)cc1` (configuration not stated), the TGI in assay [1] was determined as 2.92 µM; in [2] it was 4.74 µM; in assay [3], 4.2 µM; in assay [4], 3.52 µM; in assay [5], 3.66 µM; in assay [14], 3.68 µM. Also, the TGI in assay [6] was found to be 4.21 µM; in assay [7] it was 8.03 µM; in assay [8], 0.954 µM; in assay [9], 11.5 µM; in [10], 5.26 µM; in assay [11], 3.86 µM. Moreover, the TGI in assay [12] was 2.62 µM; in [13] it was 11.3 µM.
`C[n+]1c(-c2ccc(/C=N/NC(=N)N/N=C/c3ccc(-c4cn5cc(Cl)ccc5[n+]4C)cc3)cc2)cn2cc(Cl)ccc21`: the TGI in assay [15], in assay [16], in [3], in assay [4], in assay [14] and in [7] was above 100 µM throughout. Also, the TGI in assay [9], in assay [10], in assay [11], in [17], in [12] and in [13] was above 100 µM throughout.
On to `Cc1ccc(S(=O)(=O)N/N=C(\c2nc3ccc(Cl)cc3[nH]c2=O)C(O)c2cccc([N+](=O)[O-])c2)cc1` (configuration not stated), for which the TGI in assay [1], in [2], in [3], in [4], in [5] and in assay [14] was above 100 µM in each case. In addition, the TGI in [6], in [7], in assay [8], in assay [9], in assay [10] and in [11] was above 100 µM throughout. Further, the TGI in assay [12] and in assay [13] was above 100 µM throughout.
Turning to `O=C(c1ccc(Cl)cc1)c1ccc(OCCCOc2ccc(C(=O)c3ccc(Cl)cc3)cc2)cc1`, the TGI in assay [1], in [2], in assay [3], in assay [4], in assay [5] and in assay [14] was above 100 µM each time. Further, the TGI in [6], in assay [7], in assay [8], in assay [9], in assay [10] and in [11] was above 100 µM in each case. Also, the TGI in assay [12] and in assay [13] was above 100 µM throughout.
As for `COc1cc2c(c(OC)c1OC)-c1ccc(SC)c(=O)cc1[C@@H](NCc1ccc(C#N)cc1)CC2`, the TGI is above 100 µM in assay [2]; 0.0463 µM in assay [3]; above 100 µM in assay [4]; 0.0129 µM in assay [5]; 0.0081 µM in [14]; above 100 µM in assay [8]. Further, the TGI in assay [10] was above 100 µM; in assay [11] it was above 100 µM; in assay [12] it was above 100 µM; in assay [13] it was 15.6 µM.
For `NC(CCCC(N)P(=O)(O)c1ccccc1)P(=O)(O)c1ccccc1` (configuration not stated), the TGI in assay [1], in assay [2], in [3], in assay [4], in assay [5] and in assay [14] was above 261 µM each time. For the same compound, the TGI in assay [6], in assay [7], in assay [8], in [9], in assay [10] and in assay [11] was above 261 µM in each case. For the same compound, the TGI in [12] is above 261 µM.
Take `O=c1[nH]c(=O)n(C2OC(COP(=O)(O)OP(=O)(O)OC3OC(CO)C(O)C(O)C3O)C(O)C2O)cc1F` (configuration not stated): the TGI in assay [1] is 3.16 µM; in assay [2] it was 20.9 µM; in assay [3], 11.5 µM; in assay [4], above 100 µM; in [5], 4.73 µM; in assay [14], 7.75 µM. The TGI in assay [6] is above 91.3 µM; in [7], 0.429 µM; in assay [8] it was 9.62 µM; in [9] it was above 50.1 µM; in assay [10], 7.18 µM; in assay [11] it was above 100 µM. Also, the figures for the TGI in [12] and in [13] were 30.4 µM and 23.7 µM, respectively.
Turning to `COc1ccc(-c2cc(=O)c3cc4c(cc3[nH]2)OCO4)cc1OC`, the TGI in assay [1], in [2], in assay [3], in [4], in assay [5] and in [14] was above 100 µM each time. Besides, the TGI in assay [6], in assay [7], in assay [8], in assay [9], in assay [10] and in assay [11] was above 100 µM throughout. Besides, the TGI in [12] and in assay [13] was above 100 µM throughout.
For the compound `CC(C)(C)N=NNc1cn(C2OC(CO)C(O)C2O)c(=O)[nH]c1=O` (configuration not stated), the TGI in assay [1], in assay [2], in assay [3], in assay [4], in [5] and in [14] was above 100 µM throughout. Also, the TGI in assay [6], in [7], in assay [8], in [9], in [10] and in assay [11] was above 100 µM each time. The TGI in assay [12] and in assay [13] was above 100 µM in each case.
